12 compounds from ChEMBL document CHEMBL4665908, “Estrogen Receptor Degrading PROTACS for the Treatment of Breast Cancer” (ACS Med Chem Lett, 2020) can be followed below.

Structures are written as SMILES.

Chain of Protein cereblon/Estrogen receptor (Q96SW2 whole entry, one chain of several): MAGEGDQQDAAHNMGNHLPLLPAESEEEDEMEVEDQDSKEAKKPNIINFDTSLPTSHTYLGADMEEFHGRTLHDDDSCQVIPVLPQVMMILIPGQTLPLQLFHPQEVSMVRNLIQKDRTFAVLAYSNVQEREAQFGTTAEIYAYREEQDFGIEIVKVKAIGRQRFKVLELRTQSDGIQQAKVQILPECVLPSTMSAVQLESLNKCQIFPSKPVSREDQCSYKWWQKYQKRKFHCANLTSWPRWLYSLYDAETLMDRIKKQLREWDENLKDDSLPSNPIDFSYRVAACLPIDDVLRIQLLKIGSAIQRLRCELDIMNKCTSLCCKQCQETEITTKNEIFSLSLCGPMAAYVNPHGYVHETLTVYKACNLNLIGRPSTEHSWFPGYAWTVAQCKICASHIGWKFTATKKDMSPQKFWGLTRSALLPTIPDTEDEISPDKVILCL

The first experiment has as its target Protein cereblon/Estrogen receptor (Homo sapiens, UniProt P03372+Q96SW2). Briefly: Protac activity at CRBN/ERalpha in human MCF7 cells assessed as induction of ERalpha protein degradation incubated for 8 to 22 hrs by immunofluorescence assay. Type of experiment: cell-based.
The IC50 is the midpoint of a concentration-inhibition curve. For the compound `COc1cc(N2CCN(CCC3CCN(c4ncc([C@@H]5c6[nH]c7ccccc7c6C[C@@H](C)N5CC(C)(C)F)cn4)CC3)CC2)cc2c1C(=O)N(C1CCC(=O)NC1=O)C2` (stereo partly drawn), the IC50 came to 0.4 nM.

Consider `C[C@@H]1Cc2c([nH]c3ccccc23)[C@@H](c2cnc(N3CCC4(CC3)CC(CN3CC5(CCN(c6ccc7c(c6)CN(C6CCC(=O)NC6=O)C7=O)CC5)C3)C4)nc2)N1CC(C)(C)F` (stereo partly drawn), for which the IC50 was 0.4 nM.

For the compound `C[C@@H]1Cc2c([nH]c3ccccc23)[C@@H](c2cnc(N3CCC(CN4CCN(CC5CCN(c6ccc7c(c6)CN(C6CCC(=O)NC6=O)C7=O)CC5)CC4)CC3)nc2)N1CC(C)(C)F` (stereo partly drawn), the IC50 came out at 0.6 nM.

With `C[C@@H]1Cc2c([nH]c3ccccc23)[C@@H](c2cnc(N3CCC4(CCN(CCC5CCN(c6ccc7c(c6)CN(C6CCC(=O)NC6=O)C7=O)CC5)CC4)CC3)nc2)N1CC(C)(C)F` (stereo partly drawn), the IC50 was found to be 0.8 nM.

`C[C@@H]1Cc2c([nH]c3ccccc23)[C@@H](c2cnc(OC3CCC4(CC3)CCN(CC3CCN(c5ccc6c(c5)CN(C5CCC(=O)NC5=O)C6=O)CC3)CC4)nc2)N1CC(C)(C)F` (stereo partly drawn): the half-maximal inhibitory concentration (IC50) came out at 0.4 nM.

As for `C[C@@H]1Cc2c([nH]c3ccccc23)[C@@H](c2cnc(N3CCC(CCN4CCC5(CC4)CCN(c4ccc6c(c4)CN(C4CCC(=O)NC4=O)C6=O)CC5)CC3)nc2)N1CC(C)(C)F` (stereo partly drawn), the IC50 is 0.4 nM.

For the compound `C[C@@H]1Cc2c([nH]c3ccccc23)[C@@H](c2cnc(N3CCC(CCN4CCN(c5ccc6c(c5)CN(C5CCC(=O)NC5=O)C6=O)CC4)CC3)nc2)N1CC(C)(C)F` (stereo partly drawn), the IC50 was 0.5 nM.

Consider `C[C@@H]1Cc2c([nH]c3ccccc23)[C@@H](c2cnc(N3CCC(OCCN4CCN(c5ccc6c(c5)CN(C5CCC(=O)NC5=O)C6=O)CC4)CC3)nc2)N1CC(C)(C)F` (stereo partly drawn), for which the IC50 was 0.5 nM.

Regarding `COc1cc(N2CCN(CC3CCN(c4ncc([C@@H]5c6[nH]c7ccccc7c6C[C@@H](C)N5CC(C)(C)F)cn4)CC3)CC2)cc2c1C(=O)N(C1CCC(=O)NC1=O)C2` (stereo partly drawn), the IC50 is 0.7 nM.

Turning to `C[C@@H]1Cc2c([nH]c3ccccc23)[C@@H](c2c(F)cc(OCCCCCN3CCN(c4ccc5c(c4)CN(C4CCC(=O)NC4=O)C5=O)CC3)cc2F)N1CC(C)(C)F` (stereo partly drawn), the IC50 was 0.6 nM.

For the compound `C[C@@H]1Cc2c([nH]c3ccccc23)[C@@H](c2cnc(N3CCC(CCN4CCOC5(CC4)CCN(c4ccc6c(c4)CN(C4CCC(=O)NC4=O)C6=O)CC5)CC3)nc2)N1CC(C)(C)F` (stereo partly drawn), the IC50 came out at 0.5 nM.

For `C[C@@H]1Cc2c([nH]c3ccccc23)[C@@H](c2cnc(N3CCC(CN4CCOC5(CC4)CCN(c4ccc6c(c4)CN(C4CCC(=O)NC4=O)C6=O)CC5)CC3)nc2)N1CC(C)(C)F` (stereo partly drawn), the IC50 was 0.4 nM.

A further experiment concerns the target T1, Estrogen receptor (Homo sapiens, UniProt P03372).
T1 sequence (P03372 whole entry): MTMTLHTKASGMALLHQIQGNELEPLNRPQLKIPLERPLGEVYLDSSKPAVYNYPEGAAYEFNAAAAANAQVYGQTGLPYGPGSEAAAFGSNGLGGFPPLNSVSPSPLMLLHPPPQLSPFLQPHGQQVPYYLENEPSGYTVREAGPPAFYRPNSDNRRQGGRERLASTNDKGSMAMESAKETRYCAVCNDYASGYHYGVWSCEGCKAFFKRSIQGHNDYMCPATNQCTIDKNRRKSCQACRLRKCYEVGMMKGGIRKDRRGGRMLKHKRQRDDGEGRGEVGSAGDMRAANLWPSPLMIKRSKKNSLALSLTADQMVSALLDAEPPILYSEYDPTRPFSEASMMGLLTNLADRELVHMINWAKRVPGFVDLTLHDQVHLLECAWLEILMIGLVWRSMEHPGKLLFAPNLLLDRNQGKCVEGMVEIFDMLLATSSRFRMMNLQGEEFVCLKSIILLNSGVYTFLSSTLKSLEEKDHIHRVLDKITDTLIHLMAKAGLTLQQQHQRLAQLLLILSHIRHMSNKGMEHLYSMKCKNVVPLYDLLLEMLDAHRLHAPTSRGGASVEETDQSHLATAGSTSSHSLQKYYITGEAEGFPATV
Briefly: Displacement of fluorescent ligand from human recombinant GST-tagged ER-alpha ligand binding domain (307 to 554 residues) incubated for 15 mins by TR-FRET based competitive assay. For orientation: In TR-FRET formats the signal depends on donor and acceptor labels being close together.
Regarding `C[C@@H]1Cc2c([nH]c3ccccc23)[C@@H](c2cnc(N3CCC4(CC3)CC(CN3CC5(CCN(c6ccc7c(c6)CN(C6CCC(=O)NC6=O)C7=O)CC5)C3)C4)nc2)N1CC(C)(C)F` (stereo partly drawn), the IC50 worked out at 1.9 nM.
